Test results: article PMC3448056, “2-Benzamido-N-(1H-benzo[d]imidazol-2-yl)thiazole-4-carboxamide derivatives as potent inhibitors of CK1δ/ε” (Amino Acids, 2012)
Read-outs that look alike come from different tables or passages of the source.

Key:
GST-mouse CK1δTV1 = biological target: T1, GST-mouse CK1δTV1 (Mus musculus, UniProt Q9DC28); assay: In vitro kinase assay, GST-mouse CK1δTV1; type: biochemical
T1 construct: made in house; host or cells: bacteria (pGEX-2T)
Source text: (§1) CK1δTV1 and 2 (transcription variants 1 and 2) were PCR amplified from mouse cDNA (5′-primer TV1 and 2: 5′-[…]-3′, 3′-primer TV1: 5′-[…]-3′, 3′-primer TV2: 5′-[…]-3′) and cloned into pcDNA3.1/V5-His© TOPO® TA cloning vector (Invitrogen, Karlsruhe, Germany) before being subcloned into pGEX-2T expression vector via BamHI to generate plasmids pGEX-2T-mouse CK1δTV1 (FP1170) and pGEX-2T-mouse CK1δTV2 (FP1171).
(§2) Expression and purification of the GST-fusion proteins GST-mouse p53^1–64 (FP267), GST-rat CK1δ (FP449), GST-rat CK1δ^M82F (FP1153), GST-mouse CK1δTV1 (FP1170), and GST-mouse CK1δTV2 (FP1171) was carried out as described elsewhere (Wolff et al. [2005]). Expression of fusion proteins FP1170 and 1171 was either performed at 37°C for 2 h, or at 15°C for 14 h. FP449 and FP1153 were always expressed at 15°C for 14 h.
(§3) In vitro kinase assays were carried out in the presence of various potential inhibitors of CK1δ at an ATP concentration of 0.01 mM and dimethyl sulfoxide (DMSO) solvent control as described previously (Knippschild et al. [1996]). Where indicated higher ATP concentrations (0.05, 0.1, 0.25 and 0.5 mM) were used. The fusion protein GST-mouse p53^1−64 (FP267) was used as substrate. Recombinant CK1δ kinase domain (CK1δkd, NEB, Frankfurt am Main, Germany), GST-rat CK1δ (FP449), GST-rat CK1δ^M82F (FP1153), GST-mouse CK1δTV1, GST-mouse CK1δTV2 and recombinant human CK1ε (Invitrogen, Karlsruhe, Germany) were used as sources of enzyme. Phosphorylated proteins were separated by SDS-PAGE and the protein bands were visualized on dried gels by autoradiography. The phosphorylated protein bands were excised and quantified by Cherenkov counting.

GST-mouse CK1δTV2 = biological target: T2, GST-mouse CK1δTV2 (Mus musculus, UniProt Q9DC28); assay: In vitro kinase assay, GST-mouse CK1δTV2; type: biochemical
T2 construct: made in house; host or cells: bacteria (pGEX-2T)
T2 sequence (Q9DC28 1-409 isoform Q9DC28-2): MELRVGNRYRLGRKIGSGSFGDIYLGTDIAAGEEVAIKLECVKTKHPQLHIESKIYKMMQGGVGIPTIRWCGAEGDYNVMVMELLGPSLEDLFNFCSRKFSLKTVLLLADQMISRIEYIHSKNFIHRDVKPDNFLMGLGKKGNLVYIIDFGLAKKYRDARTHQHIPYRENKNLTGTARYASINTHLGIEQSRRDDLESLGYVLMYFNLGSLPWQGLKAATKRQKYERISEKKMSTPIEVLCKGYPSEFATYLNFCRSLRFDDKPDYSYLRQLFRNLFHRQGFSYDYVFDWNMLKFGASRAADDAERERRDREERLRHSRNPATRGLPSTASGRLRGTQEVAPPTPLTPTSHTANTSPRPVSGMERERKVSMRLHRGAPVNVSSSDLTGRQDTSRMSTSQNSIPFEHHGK
Source text: as §1, §2, §3

GST-rat CK1δ^M82F = biological target: T3, GST-rat CK1δ^M82F (Rattus norvegicus, UniProt Q06486, M82F); assay: In vitro kinase assay, gatekeeper mutant; type: biochemical; settings: inhibitor at its determined IC50 concentration (Fig. 7)
T3 construct: made in house; host or cells: bacteria (pGEX-2T)
T3 sequence (Q06486 1-415 M82F): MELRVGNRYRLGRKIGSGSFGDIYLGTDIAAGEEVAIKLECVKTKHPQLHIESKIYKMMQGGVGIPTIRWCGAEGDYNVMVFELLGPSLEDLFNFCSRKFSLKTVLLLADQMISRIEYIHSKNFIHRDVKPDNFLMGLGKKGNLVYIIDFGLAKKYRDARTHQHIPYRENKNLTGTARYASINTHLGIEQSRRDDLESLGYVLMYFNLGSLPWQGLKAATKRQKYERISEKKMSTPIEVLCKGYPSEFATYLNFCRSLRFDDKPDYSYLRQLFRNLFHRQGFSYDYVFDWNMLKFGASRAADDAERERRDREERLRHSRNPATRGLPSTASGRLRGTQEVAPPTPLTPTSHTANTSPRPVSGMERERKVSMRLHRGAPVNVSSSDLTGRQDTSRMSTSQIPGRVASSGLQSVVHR
Protocol: For the expression of wt rat CK1δ and rat CK1δ^M82F as glutathione S-transferase fusion proteins the plasmids pGEX-2T-CK1δ (FP449) (Knippschild et al. [1997]) and pGEX-2T-CK1δ^M82F (FP1153) (Peifer et al. [2009]) were used.
as §2, §3
Previously it has been shown that methionine 82 plays an important role as gatekeeper residue in the docking mode of isoxazoles to the ATP binding pocket since mutation of methionine 82 to phenylalanine blocks binding of this class of CK1δ specific inhibitors (Peifer et al. [2009]) while still binding ATP. Therefore, we now analyzed the effects of exchanging methionine 82 to phenylalanine on the ability of compounds 4, 5 and 6 to inhibit CK1δ activity.

CLK1 = biological target: T4, CLK1 (Homo sapiens, UniProt P49759); assay: KINOMEscan selectivity profiling; type: binding; settings: remaining relative to controls, read-out: %Ctrl @ 10 μM (CLK1)
T4 construct: purchased Ambit Biosciences Cooperation, San Diego, USA (KINOMEscan)
T4 sequence (P49759 whole entry): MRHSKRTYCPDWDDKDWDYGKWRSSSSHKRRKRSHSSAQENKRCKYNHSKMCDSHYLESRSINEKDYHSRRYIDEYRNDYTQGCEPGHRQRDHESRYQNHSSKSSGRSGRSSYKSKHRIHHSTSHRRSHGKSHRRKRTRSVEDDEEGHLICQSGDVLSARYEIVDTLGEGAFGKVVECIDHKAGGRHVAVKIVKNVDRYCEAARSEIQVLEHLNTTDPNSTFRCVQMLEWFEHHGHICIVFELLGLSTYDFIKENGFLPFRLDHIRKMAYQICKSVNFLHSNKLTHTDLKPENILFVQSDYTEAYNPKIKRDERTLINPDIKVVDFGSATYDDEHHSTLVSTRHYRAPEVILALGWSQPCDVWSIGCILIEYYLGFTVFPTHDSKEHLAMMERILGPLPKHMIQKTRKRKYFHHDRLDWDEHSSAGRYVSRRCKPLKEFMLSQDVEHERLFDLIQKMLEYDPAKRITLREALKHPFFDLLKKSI
Protocol: (§4) KINOMEscan™ was performed to determine binding constants of coumpound 5 to 442 eukaryotic kinases by Ambit Biosciences Cooperation, San Diego, USA.

CLK3 = biological target: T5, CLK3 (Homo sapiens, UniProt P49761); assay: KINOMEscan selectivity profiling; type: binding; settings: remaining relative to controls, read-out: %Ctrl @ 10 μM (CLK3)
T5 construct: purchased Ambit Biosciences Cooperation, San Diego, USA (KINOMEscan)
T5 sequence (P49761 whole entry): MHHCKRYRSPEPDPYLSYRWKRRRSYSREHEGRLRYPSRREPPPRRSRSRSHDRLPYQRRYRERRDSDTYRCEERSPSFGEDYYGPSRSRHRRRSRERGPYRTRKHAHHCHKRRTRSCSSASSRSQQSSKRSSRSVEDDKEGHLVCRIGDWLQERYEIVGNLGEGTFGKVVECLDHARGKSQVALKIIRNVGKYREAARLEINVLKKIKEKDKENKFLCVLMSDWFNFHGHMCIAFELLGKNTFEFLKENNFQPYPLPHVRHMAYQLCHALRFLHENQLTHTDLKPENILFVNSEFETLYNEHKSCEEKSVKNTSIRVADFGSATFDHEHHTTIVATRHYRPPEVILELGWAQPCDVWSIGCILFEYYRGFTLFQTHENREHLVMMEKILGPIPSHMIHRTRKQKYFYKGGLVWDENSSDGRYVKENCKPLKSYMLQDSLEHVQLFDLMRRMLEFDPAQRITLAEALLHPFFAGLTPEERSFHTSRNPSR
Protocol: as §4

DYRK1A = biological target: T6, DYRK1A (Homo sapiens, UniProt Q13627); assay: KINOMEscan selectivity profiling; type: binding; settings: remaining relative to controls, read-out: %Ctrl @ 10 μM (DYRK1A)
T6 construct: purchased Ambit Biosciences Cooperation, San Diego, USA (KINOMEscan)
Protocol: as §4

FLT3(D835H) = biological target: T7, FLT3(D835H) (Homo sapiens, UniProt P36888, D835H); assay: KINOMEscan selectivity profiling; type: binding; settings: remaining relative to controls, read-out: %Ctrl @ 10 μM (FLT3(D835H))
T7 construct: purchased Ambit Biosciences Cooperation, San Diego, USA (KINOMEscan)
Protocol: as §4

IRAK3 = biological target: T8, IRAK3 (Homo sapiens, UniProt Q9Y616); assay: KINOMEscan selectivity profiling; type: binding; settings: remaining relative to controls, read-out: %Ctrl @ 10 μM (IRAK3)
T8 construct: purchased Ambit Biosciences Cooperation, San Diego, USA (KINOMEscan)
T8 sequence (Q9Y616 whole entry): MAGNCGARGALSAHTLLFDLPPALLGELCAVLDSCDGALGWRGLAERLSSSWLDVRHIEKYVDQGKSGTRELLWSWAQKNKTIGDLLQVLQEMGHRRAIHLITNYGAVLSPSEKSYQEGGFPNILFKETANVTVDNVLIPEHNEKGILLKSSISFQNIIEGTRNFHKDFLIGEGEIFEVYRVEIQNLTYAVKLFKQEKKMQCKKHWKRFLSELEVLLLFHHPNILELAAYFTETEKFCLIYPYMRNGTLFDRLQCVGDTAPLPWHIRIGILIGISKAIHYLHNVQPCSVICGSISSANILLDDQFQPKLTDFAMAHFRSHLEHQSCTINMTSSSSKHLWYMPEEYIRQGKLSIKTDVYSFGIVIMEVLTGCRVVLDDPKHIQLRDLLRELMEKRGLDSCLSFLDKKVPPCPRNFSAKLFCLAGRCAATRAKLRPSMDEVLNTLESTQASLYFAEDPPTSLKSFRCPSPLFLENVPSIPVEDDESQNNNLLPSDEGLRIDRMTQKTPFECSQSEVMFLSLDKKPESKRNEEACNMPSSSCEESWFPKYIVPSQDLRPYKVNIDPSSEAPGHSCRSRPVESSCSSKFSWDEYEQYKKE
Protocol: as §4

PIP5K2C = biological target: T9, PIP5K2C (Homo sapiens, UniProt Q8TBX8); assay: KINOMEscan selectivity profiling; type: binding; settings: remaining relative to controls, read-out: %Ctrl @ 10 μM (PIP5K2C)
T9 construct: purchased Ambit Biosciences Cooperation, San Diego, USA (KINOMEscan)
T9 sequence (Q8TBX8 whole entry): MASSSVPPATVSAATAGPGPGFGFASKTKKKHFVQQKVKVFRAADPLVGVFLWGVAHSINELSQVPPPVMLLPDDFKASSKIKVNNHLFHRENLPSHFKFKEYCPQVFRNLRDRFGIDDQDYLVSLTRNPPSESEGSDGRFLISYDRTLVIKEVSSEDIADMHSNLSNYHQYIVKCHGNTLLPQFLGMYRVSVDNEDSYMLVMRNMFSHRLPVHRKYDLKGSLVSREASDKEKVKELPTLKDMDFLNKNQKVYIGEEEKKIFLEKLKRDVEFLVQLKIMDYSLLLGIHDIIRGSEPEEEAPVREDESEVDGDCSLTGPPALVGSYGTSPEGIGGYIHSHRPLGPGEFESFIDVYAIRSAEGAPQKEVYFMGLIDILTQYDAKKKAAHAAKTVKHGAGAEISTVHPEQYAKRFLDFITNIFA
Protocol: as §4

[1] = 0.01 mM ATP, substrate GST-mouse p53^1-64, mean ± SD, read-out: IC50 (μM) GST-CK1δ TV1
[2] = 0.01 mM ATP, substrate GST-mouse p53^1-64, mean ± SD, read-out: IC50 (μM) GST-CK1δ TV2

T1 sequence (Q9DC28 whole entry): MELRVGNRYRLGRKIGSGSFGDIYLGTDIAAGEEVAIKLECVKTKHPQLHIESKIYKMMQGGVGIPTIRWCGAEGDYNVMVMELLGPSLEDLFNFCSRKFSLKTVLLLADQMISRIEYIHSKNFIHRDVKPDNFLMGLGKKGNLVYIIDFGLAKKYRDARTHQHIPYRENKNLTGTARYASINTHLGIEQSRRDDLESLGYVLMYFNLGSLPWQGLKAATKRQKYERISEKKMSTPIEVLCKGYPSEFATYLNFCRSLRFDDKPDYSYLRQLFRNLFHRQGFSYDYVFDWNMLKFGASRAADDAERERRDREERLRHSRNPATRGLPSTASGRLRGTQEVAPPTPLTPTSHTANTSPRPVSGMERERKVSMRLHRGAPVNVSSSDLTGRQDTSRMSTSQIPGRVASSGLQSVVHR

IC50 (GST-mouse CK1δTV1; [1]) | IC50 (GST-mouse CK1δTV1; IC50 CK1δTV1, 2 h, enzyme induced for 2 h at 37°C) | IC50 (GST-mouse CK1δTV1; enzyme induced for 14 h at 15°C, read-out: IC50 CK1δTV1, 14 h) | IC50 (GST-mouse CK1δTV2; [2]) | IC50 (GST-mouse CK1δTV2; IC50 CK1δTV2, 2 h, enzyme induced for 2 h at 37°C) | IC50 (GST-mouse CK1δTV2; enzyme induced for 14 h at 15°C, read-out: IC50 CK1δTV2, 14 h) | kinase activity of GST-CK1δ^M82F in comparison with inhibition of GST-wt CK1δ (GST-rat CK1δ^M82F) | remaining binding at 10 µM (CLK1) | remaining binding at 10 µM (CLK3) | remaining binding at 10 µM (DYRK1A) | remaining binding at 10 µM (FLT3(D835H)) | remaining binding at 10 µM (IRAK3) | remaining binding at 10 µM (PIP5K2C) | Compound
0.022 ± 0.02 µM | 0.066 µM | 0.023 µM | 0.042 ± 0.02 µM | 0.064 µM | 0.043 µM | much more affected | 2.6% | 20% | 4.1% | 25% | 27% | 9.6% | O=C(Nc1nc2ccc(C(F)(F)F)cc2[nH]1)c1csc(NC(=O)c2ccccc2OC(F)(F)F)n1 [Compound 5, 2-(2-(Trifluoromethoxy)benzamido)-N-(6-(trifluoromethyl)-1H-benzo[d]imidazol-2-yl)thiazole-4-carboxamide]
0.048 ± 0.02 µM |  |  | 0.055 ± 0.02 µM |  |  | similarly or even less affected |  |  |  |  |  |  | O=C(Nc1nc2cc(Cl)c(F)cc2[nH]1)c1csc(NC(=O)c2ccccc2OC(F)(F)F)n1 [Compound 6, N-(5-Chloro-6-fluoro-1H-benzo[d]imidazol-2-yl)-2-(2-(trifluoromethoxy)benzamido)thiazole-4-carboxamide]
